Laboratory results from patent US11279735B2, “Cyclic peptide antibiotics” (priority 2017, dated 2022).
Converted amounts (≈) assume the structure as drawn. *1 amine or outer side, *2 acyl side, *3 side chain or, on linkers, in order; H or OH if unused. Where a SMILES comes first, the peptide text is derived from it. [ ]: non-standard residue; d: D form. The star is where a group is joined. X1 = CCCCCC[C@@H](C(=O)[*:2])[C@@H](C)OC[C@@H](C)N[*:1]; X2 = CCCCCC[C@@H](OC[C@@H](C)N[*:1])[C@@H](C)C(=O)[*:2]; X9 = CCCCCC(C)[C@@H](OC[C@@H](C)N[*:1])C(C)C(=O)[*:2]; aThr = C[C@H](O)[C@H](N)C(=O)O; NMeL = CN[C@@H](CC(C)C)C(=O)O; Chg = N[C@H](C(=O)O)C1CCCCC1; NMeNva = CCC[C@H](NC)C(=O)O; Dap = NC[C@H](N)C(=O)O; Propyl(3-NH2) = NCCC*; Ethyl(2-NH2) = NCC*; X24 = NC[C@H](F)C*

What follows are compounds tested on Escherichia coli (E. coli) strain CFT073 ATCC 700928. Conditions: ATCC 700928, 22 h.
Format: cell-based
Method: In vitro antimicrobial activity of each compound was determined by measuring minimal inhibitor concentrations (MICs) using the broth micro-dilution technique as approved by the Clinical and Laboratory Standards Institute (CLSI) (Methods for Dilution Antimicrobial Susceptibility Tests for Bacteria that Grow Aerobically; Approved Standard—Eighth Edition. CLSI document M07-A8. Wayne, Pa.: Clinical and Laboratroy Standards; 2009). Antibacterial activity was measure against Escherichia coli (E. coli) strain CFT073 ATCC 700928, which is a clinically relevant Gram-negative strain. Cells were inoculated onto plates of Mueller Hinton Agar and grown at 37° C. for 16-18 hours. Inocula suspensions were prepared by scraping cells into 1 mL of testing media (Mueller Hinton II cation adjusted Broth supplemented with 0.002% v/v Tween-80) and diluting to a final OD600 nm of 0.01.
Test compounds were prepared in DMSO at a concentration of 100 uM The compounds were tested under several different dilution formats and the data are reported in Tables 6, 7 and 8. In protocol 1, the compound stocks were diluted into testing media at a concentration of 64 μg/ml and serial 2-fold dilutions were made in the same media, in 96-well U bottom microtiter dishes, for a total of 10 compound concentrations. In protocol 2, the compound stocks were diluted into testing media at a concentration of 4 μg/mL and serial 2-fold dilutions were made in the same media, in 96-well U bottom microtiter dishes, for a total of 10 compound concentrations. In protocol 3, compound stocks were diluted into testing media at a concentration of 0.5 μg/mL, with serial 2-fold dilutions conducted as described above. In protocol 4, compound stocks were diluted into testing media at a concentration of 0.13 μg/mL, with serial 2-fold dilutions conducted as described above. Inocula suspensions were added to the 2-fold serial dilutions of test compounds to a final density of OD OD600 nm of 0.0005 and incubated at 35° C. for 22 hours.

Compound	MIC [µM]
CCCCCC[C@H]1OC(=O)CNC(=O)[C@H](CNC(=O)CN)NC(=O)[C@H](CN)NC(=O)[C@H](C2CCCCC2)NC(=O)[C@H](CC(C)C)N(C)C(=O)[C@@H]1C [Example 139, 2-amino-N-[[(6S,9S,12S,15S,18R,19R)-9-(aminomethyl)-12-cyclohexyl-19-hexyl-15-isobutyl-16,18-dimethyl-2,5,8,11,14,17-hexaoxo-1-oxa-4,7,10,13,16-pentazacyclononadec-6-yl]methyl]acetamide]	18 (≈ 13 µg/mL)
CCCCCC[C@H]1C(=O)N(C)[C@@H](CCC)C(=O)N[C@@H](C2CCCCC2)C(=O)N[C@@H](CN)C(=O)N[C@@H]([C@H](C)O)C(=O)N[C@H](C)CO[C@@H]1C [Example 150, (3R,6S,9S,12S,15S,18R,19R)-9-(Aminomethyl)-12-cyclohexyl-18-hexyl-6-((S)-1-hydroxyethyl)-3,16,19-trimethyl-15-propyl-1-oxa-4,7,10,13,16-pentaazacyclononadecane-5,8,11,14,17-pentaone] (cyclo([Chg][Dap][aThr][X1][NMeNva]))	25 (≈ 16.7 µg/mL)
CCCCCC[C@H]1OC[C@@H](C)NC(=O)[C@H](COCCN)NC(=O)[C@H](CN)NC(=O)[C@H](C2CCCCC2)NC(=O)[C@H](CC(C)C)N(C)C(=O)[C@@H]1C [Example 138, (3R,6S,9S,12S,15S,18R,19R)-6-(2-aminoethoxymethyl)-9-(aminomethyl)-12-cyclohexyl-19-hexyl-15-isobutx1-3,16,18-trimethyl-1-oxa-4,7,10,13,16-pentazacyclononadecane-5,8,11,14,17-pentone] (cyclo([Chg][Dap]S(Ethyl(2-NH2))[X2][NMeL]))	12 (≈ 8.52 µg/mL)
CCCCCC[C@H]1OC(=O)CNC(=O)[C@H]([C@H](C)O)NC(=O)[C@H](CN)NC(=O)[C@H](C2CCC(F)(F)CC2)NC(=O)[C@H](CC(C)C)N(C)C(=O)[C@@H]1C (single isomer, unassigned) [Example 52]	12 (≈ 8.6 µg/mL)
CCCCCC(C)[C@H]1OC[C@@H](C)NC(=O)[C@H]([C@H](C)O)NC(=O)[C@H](CN)NC(=O)[C@H](C2CCCCC2)NC(=O)[C@H](CC(C)C)N(C)C(=O)C1C (stereo partly drawn) [Example 153, (3R,6S,9S,12S,15S,18R,19R)-9-(Aminomethyl)-12-cyclohexyl-19-(heptan-2-yl)-6-((S)-1-hydroxyethyl)-15-isobutyl-3,16,18-trimethyl-1-oxa-4,7,10,13,16-pentaazacyclononadecane-5,8,11,14,17-pentaone] (cyclo([Chg][Dap][aThr][X9][NMeL]))	1.6 (≈ 1.11 µg/mL)
CCC[C@H]1C(=O)N[C@@H](C2CCCCCC2)C(=O)N[C@@H](CN)C(=O)N[C@@H](CO[C@H]2C[C@H](N)C2)C(=O)NCC(=O)O[C@H](CCC2CC3CCC2C3)[C@@H](C)C(=O)N1C (stereo partly drawn) [Example 137, (6S,9S,12S,15S,18R,19R)-6-[(3-aminocyclobutoxy)methyl]-9-(aminomethyl)-12-cycloheptyl-16,18-dimethyl-19-(2-norbornan-2-ylethyl)-15-propyl-1-oxa-4,7,10,13,16-pentazacyclononadecane-2,5,8,11,14,17-hexone]	0.78 (≈ 0.604 µg/mL)
CCCCCCCCCC[C@H]1OC(=O)CNC(=O)[C@H]([C@H](C)O)NC(=O)[C@H](CN)NC(=O)[C@H](CCCOC)NC(=O)[C@H](CC(C)C)N(C)C(=O)[C@@H]1C [Example 87, (6S,9S,12S,15S,18R,19R)-9-(aminomethyl)-19-decyl-15-isobutyl-12-(3-methoxypropyl)-16,18-dimethyl-6-[(1S)-1-hydroxyethyl]-1-oxa-4,7,10,13,16-pentazacyclononadecane-2,5,8,11,14,17-hexone]	50 (≈ 36.3 µg/mL)
CCC(F)CCC[C@H]1OC(=O)CNC(=O)[C@H]([C@H](C)O)NC(=O)[C@H](CN)NC(=O)[C@H]([C@H](C)CC)NC(=O)[C@H](CC(C)C)N(C)C(=O)[C@@H]1C (stereo partly drawn) [Example 122, (6S,9S,12S,15S,18R,19R)-9-(aminomethyl)-19-(4-fluorohexyl)-15-isobutyl-16,18-dimethyl-6-[(1S)-1-hydroxyethyl]-12-[(1R)-1-methylpropyl]-1-oxa-4,7,10,13,16-pentazacyclononadecane-2,5,8,11,14,17-hexone]	25 (≈ 16.8 µg/mL)
CCCCCC[C@H]1OC[C@@H](C)NC(=O)[C@H]([C@H](C)O)NC(=O)[C@H](CN)NC(=O)[C@H](C2CCCCC2)NC(=O)[C@H](CCC)N(C)C(=O)[C@@H]1C [Example 127, (3R,6S,9S,12S,15S,18R,19R)-9-(aminomethyl)-12-cyclohexyl-19-hexyl-3,16,18-trimethyl-15-propyl-6-[(1S)-1-hydroxyethyl]-1-oxa-4,7,10,13,16-pentazacyclononadecane-5,8,11,14,17-pentone] (cyclo([Chg][Dap][aThr][X2][NMeNva]))	4.4 (≈ 2.93 µg/mL)
CCCCCCCCCC[C@H]1OC(=O)CNC(=O)[C@H]([C@H](C)O)NC(=O)[C@H](CO)NC(=O)[C@H]([C@@H](C)CC)NC(=O)[C@H](CC(C)C)N(C)C(=O)[C@@H]1C [Example 22, (6S,9S,12S,15S,18R,19R)-19-decyl-6-[(1S)-1-hydroxyethyl]-9-(hydroxymethyl)-15-isobutyl-16,18-dimethyl-12-[(1S)-1-methylpropyl]-1-oxa-4,7,10,13,16-pentazacyclononadecane-2,5,8,11,14,17-hexone]	13 (≈ 9.26 µg/mL)
CCCCCC[C@H]1OC[C@@H](C)NC(=O)[C@H](COCCCN)NC(=O)[C@H](CN)NC(=O)[C@H](C2CCCCC2)NC(=O)[C@H](CC(C)C)N(C)C(=O)[C@@H]1C [Example 131, (3R,6S,9S,12S,15S,18R,19R)-9-(aminomethyl)-6-(3-aminopropoxymethyl)-12-cyclohexyl-19-hexyl-15-isobutyl-3,16,18-trimethyl-1-oxa-4,7,10,13,16-pentazacyclononadecane-5,8,11,14,17-pentone] (cyclo([Chg][Dap]S(Propyl(3-NH2))[X2][NMeL]))	11 (≈ 7.96 µg/mL)
CCCCCCCCCC[C@H]1OC(=O)CNC(=O)[C@H](Cc2c[nH]cn2)NC(=O)[C@H](CO)NC(=O)[C@H]([C@@H](C)CC)NC(=O)[C@H](CC(C)C)N(C)C(=O)[C@@H]1C [Example 29, (6S,9S,12S,15S,18R,19R)-19-decyl-9-(hydroxymethyl)-6-(1H-imidazol-4-ylmethyl)-15-isobutyl-16,18-dimethyl-12-[(1S)-1-methylpropyl]-1-oxa-4,7,10,13,16-pentazacyclononadecane-2,5,8,11,14,17-hexone]	13 (≈ 9.72 µg/mL)
CCCCCC[C@H]1OC(=O)CNC(=O)[C@H]([C@H](C)O)NC(=O)[C@H](CN)NC(=O)[C@H](C2CCCCC2)NC(=O)[C@H](CC(C)C)N(C)C(=O)[C@@H]1Cc1ccc(OC)cc1 [Example 123, (6S,9S,12S,15S,18R,19R)-9-(aminomethyl)-12-cyclohexyl-19-hexyl-6-[(1S)-1-hydroxyethyl]-15-isobutyl-18-[(4-methoxyphenyl)methyl]-16-methyl-1-oxa-4,7,10,13,16-pentazacyclononadecane-2,5,8,11,14,17-hexone]	12 (≈ 9.44 µg/mL)
CCCCCC[C@H]1OC(=O)CNC(=O)[C@H]([C@H](C)O)NC(=O)[C@H](CN)NC(=O)[C@H](C2CCCCC2)NC(=O)[C@H](CC(C)C)N(C)C(=O)[C@@H]1CCc1ccc(-c2ccccc2)cc1 [Example 108, (6S,9S,12S,15S,18R,19R)-9-(aminomethyl)-12-cyclohexyl-19-hexyl-15-isobutyl-16-methyl-18-[2-(4-phenylphenyl)ethyl]-6-[(1S)-1-hydroxyethyl]-1-oxa-4,7,10,13,16-pentazacyclononadecane-2,5,8,11,14,17-hexone]	35 (≈ 29.6 µg/mL)
CCC[C@H]1C(=O)N[C@@H](C2CCCCCC2)C(=O)N[C@@H](CN)C(=O)N[C@@H]([C@H](C)O)C(=O)NCC(=O)O[C@H](CC2CC3(CCC3)C2)[C@@H](C)C(=O)N1C [Example 84, (6S,9S,12S,15S,18R,19R)-9-(Aminomethyl)-12-cycloheptyl-6-((S)-1-hydroxyethyl)-16,18-dimethyl-15-propyl-19-(spiro[3.3]heptan-2-ylmethyl)-1-oxa-4,7,10,13,16-pentaazacyclononadecane-2,5,8,11,14,17-hexaone]	0.78 (≈ 0.55 µg/mL)
CCCCCC[C@H]1OC(=O)CNC(=O)[C@H](CNC(N)=O)NC(=O)[C@H](CN)NC(=O)[C@H](C2CCCCC2)NC(=O)[C@H](CC(C)C)N(C)C(=O)[C@@H]1C [Example 116, [(6S,9S,12S,15S,18R,19R)-9-(aminomethyl)-12-cyclohexyl-19-hexyl-15-isobutyl-16,18-dimethyl-2,5,8,11,14,17-hexaoxo-1-oxa-4,7,10,13,16-pentazacyclononadec-6-yl]methylurea]	50 (≈ 35.4 µg/mL)

Same assay, conditions: E. coli CFT073 ATCC 700928; Mueller Hinton II cation adjusted Broth with 0.002% v/v Tween-80; 35° C. for 22 hours; lowest concentration that completely prevented bacterial growth

Compound	MIC [µM]
CCCCCC[C@H]1OC[C@@H](C)NC(=O)[C@H](COC[C@@H](F)CN)NC(=O)[C@H](CN)NC(=O)[C@H](C2CCCCC2)NC(=O)[C@H](CC(C)C)N(C)C(=O)[C@@H]1C [Example 158, (3R,6S,9S,12S,15S,18R,19R)-6-(((S)-3-Amino-2-fluoropropoxy)methyl)-9-(aminomethyl)-12-cyclohexyl-19-hexyl-15-isobutyl-3,16,18-trimethyl-1-oxa-4,7,10,13,16-pentaazacyclononadecane-5,8,11,14,17-pentaone] (cyclo([Chg][Dap]S(X24)[X2][NMeL]))	12 (≈ 8.9 µg/mL)
